Reference: US9981916B2 (Genentech, Inc., priority 2013, dated 2018)

Target: T1, RORc ligand binding domain (Homo sapiens, UniProt P51449)
T1 construct: host or cells: E. coli
T1 sequence (P51449 269-508 limits assumed): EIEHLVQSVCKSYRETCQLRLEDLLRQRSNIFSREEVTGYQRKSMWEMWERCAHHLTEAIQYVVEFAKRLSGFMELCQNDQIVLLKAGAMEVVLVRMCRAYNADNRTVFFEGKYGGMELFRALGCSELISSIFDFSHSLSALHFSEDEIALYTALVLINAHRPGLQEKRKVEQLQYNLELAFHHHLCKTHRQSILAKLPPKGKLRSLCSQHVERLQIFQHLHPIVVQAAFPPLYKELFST
Assay: In vitro RORc ligand binding assay (25-[3H]hydroxycholesterol displacement, filter binding)
Conditions: 6 nM 25-[3H]hydroxycholesterol, 0.6 ug/mL RORc receptor, 3 h at 25° C.
Experimental: Example 17: In Vitro RORc Ligand Binding Assay
This assay was used to determine a compound's potency in inhibiting activity of RORc by determining, Kiapp, IC50, or percent inhibition values.
On day of the assay, 100 uL of 0.05% CHAPS (in deionized H2O) was added to all wells of the GFB Unifilter plate and allowed soak for 1 h. A wash buffer of 50 mM HEPES (pH 7.4), 150 mM NaCl, and 5 mM MgCl2 was prepared to wash the filter plate. To prepare an assay buffer, BSA was added to the wash buffer to reach 0.01% and DTT was added to reach 1 mM.
For IC50 mode, 10 mM compound stocks were serially diluted in DMSO with DMSO to give 20× required final concentration in DMSO (15 uL compound+30 uL DMSO). The 20× compound stocks were diluted in DMSO with Assay Buffer 4-fold to reach 5× the final test concentration in 25% DMSO (10 uL compound+30 uL Assay Buffer). Solutions were mixed by aspiration several times with a pipette set on 50 uL volume. For the assay, 10 uL of 5× compound stock solutions in 25% DMSO were added to the assay plate in duplicate.
For two point screening, 10 mM stock compound solutions were diluted in DMSO to obtain 200 uM (20× the high test concentration) and then diluted 10-fold further to reach 20 uM (20× the low test concentration). The 20× stocks were diluted 4-fold with Assay Buffer (10 uL compound+30 uL Assay Buffer) to reach 5× the test concentrations (50 uM and 5 uM) and 10 uL were added to two assay plates for the duplicate wells. With each concentration tested on 2 plates, each set of 80 compounds used 4 assay plates (1 uM and 10 uM, with n=2).
25-hydroxycholesterol (1 uM) was used to determine the level of NSB signal is prepared in DMSO as for compounds above, then diluted in Assay Buffer to give a final concentration of 5 uM. For 25-hydroxycholesterol in 25% DMSO/75% Assay Buffer; 10 uL per well was used for NSB samples. Wells for Total Binding and No Receptor sample determination contained 10 uL of 25% DMSO/75% Assay Buffer per well.
25-[^3H]hydroxycholesterol was diluted in Assay Buffer to obtain 15 nM and vortex to mix. Add 20 uL to all wells to reach 6 nM final concentration in the assay.
Stock receptor solution was diluted in assay buffer to obtain 1.5 ug/mL in Assay Buffer. 20 uL was added to all wells. For No Receptor samples, 20 uL Assay Buffer was substituted for receptor solution.
Assay plates were 96-well polypropylene V-bottom plates. 10 uL of 5× compound in 25% DMSO/75% Assay Buffer was added to Test wells. 10 uL of 25% DMSO/75% Assay Buffer was added to Total Binding or No Receptor wells. 10 uL of 5 uM 25-hydroxycholesterol in 25% DMSO/75% Assay Buffer was added to NSB wells. 20 uL of 15 nM 25-[^3H]hydroxycholesterol prepared in Assay Buffer was added to all wells. 20 uL of 1.5 ug/mL RORc receptor was added to wells (or […] Assay Buffer to No R wells). Following addition to the wells, the plates were incubated 3 h at 25° C.
Using a Packard Filtermate Harvester, the filter plate were washed 4 times following transfer of the incubated samples. Plates were dry-filtered completely (2 h at 50° C. or overnight at room temperature). 50 uL Microscint 0 was added to all wells and read on Topcount protocol Inverted.
Final concentrations were as follows: 50 mM HEPES buffer (pH 7.4); 150 mM NaCl; 1 mM DTT; 5 mM MgCl2; 0.01% BSA; 5% DMSO; 0.6 ug/mL RORc receptor; 6 nM 25-[^3H]hydroxycholesterol. For NSB wells, 1 uM 25-hydroxycholesterol was also present.

SMILES	IC50
CC1(C)[C@H]2CC[C@]1(c1nnc(C3CC3)o1)c1nnc(-c3c(F)cccc3F)cc12 [Example 123, (5R,8R)-3-(2,6-difluorophenyl)-9,9-dimethyl-8-(5-cyclopropyl-1,3,4-oxadiazol-2-yl)-5,6,7,8-tetrahydro-5,8-methanocinnoline]	109 nM
CC1(C)[C@H]2CC[C@]1(NC(=O)CO)c1nnc(-c3ccccc3F)cc12 [Example 88, N-[(5R,8R)-3-(2-fluorophenyl)-9,9-dimethyl-6,7-dihydro-5,8-methanocinnolin-8(5H)-yl]-2-hydroxyacetamide]	1440 nM
CC1(C)[C@H]2CC[C@]1(CN1CCOC1=O)c1nnc(-c3c(F)cccc3F)cc12 [Example 279, 3-(((5R,8S)-3-(2,6-difluorophenyl)-9,9-dimethyl-5,6,7,8-tetrahydro-5,8-methanocinnolin-8-yl)methyl)oxazolidin-2-one]	222 nM
CC1(C)[C@@H]2CC[C@@]1(C(=O)N1CC(F)(F)C1)c1nnc(-c3ccccc3F)cc12 [Example 332, (3,3-difluoroazetidin-1-yl)((5S,8S)-3-(2-fluorophenyl)-9,9-dimethyl-5,6,7,8-tetrahydro-5,8-methanocinnolin-8-yl)methanone]	1400 nM
COCC(=O)N[C@@]12CC[C@@H](c3cc(-c4ccccc4F)nnc31)C2(C)C [Example 83, N-[(5R,8R)-3-(2-fluorophenyl)-9,9-dimethyl-6,7-dihydro-5,8-methanocinnolin-8(5H)-yl]-2-methoxyacetamide]	1170 nM
CC1(C)[C@H]2CC[C@]1(C)c1nnc(-c3c(F)cccc3F)cc12 [Example 1, (5R,8S)-3-(2,6-Difluorophenyl)-8,9,9-trimethyl-5,6,7,8-tetrahydro-5,8-methanocinnoline]	114 nM
CC1(C)[C@H]2CC[C@]1(C(=O)N1CC(O)C1)c1nnc(-c3c(F)cccc3F)cc12 [Example 199, ((5R,8R)-3-(2,6-difluorophenyl)-9,9-dimethyl-5,6,7,8-tetrahydro-5,8-methanocinnolin-8-yl)(3-hydroxyazetidin-1-yl)methanone]	461 nM
COC[C@@]12CC[C@@H](c3cc(-c4ccccc4F)nnc31)C2(C)C [Example 28, (5R,8R)-3-(2-fluorophenyl)-8-(methoxymethyl)-9,9-dimethyl-5,6,7,8-tetrahydro-5,8-methanocinnoline]	210 nM
Cn1ccc([C@@]23CC[C@@H](c4cc(-c5c(F)cccc5F)nnc42)C3(C)C)n1 [Example 186]	152 nM
CC1(C)[C@H]2CC[C@]1(CNCC(F)F)c1nnc(-c3c(F)cccc3F)cc12 [Example 291, N-(((5R,8S)-3-(2,6-difluorophenyl)-9,9-dimethyl-5,6,7,8-tetrahydro-5,8-methanocinnolin-8-yl)methyl)-2,2-difluoroethanamine]	149 nM
CC1(C)[C@H]2CC[C@]1(C(=O)NC1CCCC1)c1nnc(-c3ccccc3F)cc12 [Example 175, (5R,8R)-N-cyclopentyl-3-(2-fluorophenyl)-9,9-dimethyl-5,6,7,8-tetrahydro-5,8-methanocinnoline-8-carboxamide]	1160 nM
CC1(C)[C@@H]2CC[C@@]1(C(=O)N1CC[C@@H](O)C1)c1nnc(-c3c(F)cccc3F)cc12 [Example 238, ((5S,8S)-3-(2,6-difluorophenyl)-9,9-dimethyl-5,6,7,8-tetrahydro-5,8-methanocinnolin-8-yl)((R)-3-hydroxypyrrolidin-1-yl)methanone]	236 nM
CC1(C)[C@H]2CC[C@]1(C(=O)Nc1ccccc1C#N)c1nnc(-c3ccccc3F)cc12 [Example 171, (5R,8R)-N-(2-cyanophenyl)-3-(2-fluorophenyl)-9,9-dimethyl-5,6,7,8-tetrahydro-5,8-methanocinnoline-8-carboxamide]	3380 nM
CN(C(=O)OC(C)(C)C)[C@]12CC[C@H](c3cc(-c4c(F)cccc4F)nnc31)C2(C)C [Example 280, tert-butyl ((5S,8S)-3-(2,6-difluorophenyl)-9,9-dimethyl-5,6,7,8-tetrahydro-5,8-methanocinnolin-8-yl)(methyl)carbamate]	2240 nM
CC1(C)[C@H]2CC[C@]1(CN(CC(N)=O)CC(F)F)c1nnc(-c3c(F)cccc3F)cc12 [Example 305, 2-((2,2-difluoroethyl)(((5R,8S)-3-(2,6-difluorophenyl)-9,9-dimethyl-5,6,7,8-tetrahydro-5,8-methanocinnolin-8-yl)methyl)amino) acetamide]	437 nM
CC1(C)[C@H]2CC[C@]1(CNCCO)c1nnc(-c3c(F)cccc3F)cc12 [Example 297, 2-((((5R,8S)-3-(2,6-difluorophenyl)-9,9-dimethyl-5,6,7,8-tetrahydro-5,8-methanocinnolin-8-yl)methyl)amino)ethanol]	2420 nM

The next molecules have a lower IC50 than those just listed; values first:

IC50	SMILES
97 nM	CC1(C)[C@@H]2CC[C@@]1(C(=O)N1CC(O)C1)c1nnc(-c3c(F)cccc3F)cc12 [Example 86, [(5S,8S)-3-(2,6-difluorophenyl)-9,9-dimethyl-6,7-dihydro-5,8-methanocinnolin-8(5H)-yl](3-hydroxyazetidin-1-yl)methanone]
49 nM	Cc1nnc([C@@]23CC[C@@H](c4cc(Oc5c(F)cccc5F)nnc42)C3(C)C)o1 [Example 336, 2-((5R,8R)-3-(2,6-difluorophenoxy)-9,9-dimethyl-5,6,7,8-tetrahydro-5,8-methanocinnolin-8-yl)-5-methyl-1,3,4-oxadiazole]
45 nM	CC(=O)OC[C@]12CC[C@H](c3cc(-c4ccccc4F)nnc31)C2(C)C [Example 12]
32 nM	COC(=O)C1CCN(C(=O)[C@]23CC[C@H](c4cc(-c5c(F)cccc5F)nnc42)C3(C)C)C1 (stereo partly drawn) [Example 213, methyl 1-((5S,8S)-3-(2,6-difluorophenyl)-9,9-dimethyl-5,6,7,8-tetrahydro-5,8-methanocinnoline-8-carbonyl)pyrrolidine-3-carboxylate]
31 nM	CCN(C[C@]12CC[C@H](c3cc(-c4c(F)cccc4F)nnc31)C2(C)C)C(=O)CCC(=O)N(C)C [Example 344, N1-(((5S,8R)-3-(2,6-difluorophenyl)-9,9-dimethyl-5,6,7,8-tetrahydro-5,8-methanocinnolin-8-yl)methyl)-N1-ethyl-N4,N4-dimethylsuccinamide]
11 nM	Cc1nnc(N(C)C[C@@]23CC[C@@H](c4cc(-c5c(F)cccc5F)nnc42)C3(C)C)o1 [Example 146, N-(((5R,8S)-3-(2,6-difluorophenyl)-9,9-dimethyl-5,6,7,8-tetrahydro-5,8-methanocinnolin-8-yl)methyl)-N,5-dimethyl-1,3,4-oxadiazol-2-amine]
7 nM	CCOC(=O)N(CC(F)F)C[C@@]12CC[C@@H](c3cc(-c4c(F)cccc4F)nnc31)C2(C)C [Example 292, ethyl (2,2-difluoroethyl)(((5R,8S)-3-(2,6-difluorophenyl)-9,9-dimethyl-5,6,7,8-tetrahydro-5,8-methanocinnolin-8-yl)methyl)carbamate]
6 nM	CCN(C[C@@]12CC[C@@H](c3cc(-c4c(F)cccc4F)nnc31)C2(C)C)C(=O)c1cc(C)on1 [Example 158, N-(((5R,8S)-3-(2,6-difluorophenyl)-9,9-dimethyl-5,6,7,8-tetrahydro-5,8-methanocinnolin-8-yl)methyl)-N-ethyl-5-methylisoxazole-3-carboxamide]
